{"source": "patent US20190387748A1", "about": "“COMPOSITIONS AND RELATED METHODS FOR AGRICULTURE” (priority 2017, published 2019)", "key": {"[1]": {"tested_on": "Sitophilus zeamais weevils", "experiment": "Emergence of F1 weevils (fecundity)", "conditions": "2.5 mg/ml ciprofloxacin; till day 43"}, "Escherichia coli DH5α": {"tested_on": "Escherichia coli DH5α", "conditions": "kernels soaked in 2.5 or 0.25 mg/ml ciprofloxacin; overnight", "protocol": "The kernels were soaked for 1.5 hours as described herein. After soaking, kernels were air dried and assayed to determine whether the antibiotic was able to coat and penetrate the kernel. To test this, a concentrated sample of Escherichia coli DH5α in water was spread onto 5 Luria Broth (LB) plates. […] The plates were incubated overnight at 37 degrees C. and bacterial growth and/or zone(s) of inhibition were assessed the next day.\nA concentrated culture of E. coli was then spread onto LB plates and one of the coated kernels was then placed onto the center of the plate. The plates were incubated overnight, and bacterial growth was assessed the next day.\nThe plates were incubated overnight and the next day bacterial growth was assessed."}, "[2]": {"tested_on": "Sitophilus zeamais weevils", "experiment": "Weevil survival monitoring", "assay_type": "in vivo", "conditions": "adult S. zeamais mating pairs; 250 μg/ml or 2.5 mg/ml ciprofloxacin; 18 days"}, "[3]": {"tested_on": "Sitophilus zeamais weevils", "experiment": "Assessment of offspring: dissection of corn kernels (F1 weevil development)", "assay_type": "in vivo", "conditions": "after 25 days"}, "[4]": {"tested_on": "Acyrthosiphon pisum aphids", "experiment": "Aphid survival monitoring", "assay_type": "in vivo", "description": "For each treatment, 33 aphids were placed onto each leaf. Artificial diet feeding systems were changed every 2-3 days throughout the experiment. Aphids were monitored daily for survival and dead aphids were removed from the deep petri dish housing the artificial feeding system when they were discovered.\n(§1) Each treatment group received approximately the same number of individuals from each of the collection plant. For each treatment, 20 aphids were placed onto each leaf. Aphids were monitored daily for survival and dead aphids were removed when they were discovered. In addition, the developmental stage (1st, 2nd, 3rd, 4th, 5th instar, and 5R, representing a reproducing 5th instar) was determined daily throughout the experiment. Pictures of aphids were taken throughout the experiment to evaluate size differences between treatment groups.\n(Vroma vicia faba from Johnny's Selected Seeds) in a climate-controlled incubator (16 h light/8 h dark photoperiod; 60±5% RH; 25±2° C.). Prior to being used for aphid rearing, fava bean plants were grown in potting soil at 24° C. with 16 h of light and 8 h of darkness. To limit maternal effects or health differences between plants, 5-10 adults from different plants were distributed among 10 two-week-old plants, and allowed to multiply to high density for 5-7 days. For experiments, first and second instar aphids were collected from healthy plants and divided into 2 different treatment groups: 1) negative control (leaf injected with water plus blue food coloring) and 2) leaf injected with 50 μg/ml rifampicin in water plus blue food coloring. Each treatment group received approximately the same number of individuals from each of the collection plants. For treatment, rifampicin stock solution (25 mg/ml in 100% methanol) was diluted to 50 μg/ml in water plus blue food coloring. The solution was then placed into a 1.5 ml Eppendorf tube with a fava bean stem perfused with the solutions and the opening of the tube was closed using parafilm. This feeding system was then placed into a deep petri dish (Fisher Scientific, Cat# FB0875711) and aphids were applied to the leaves of the plant. For each treatment, 74-81 aphids were placed onto each leaf. The feeding systems were changed every 2-3 days throughout the experiment. Aphids were monitored daily for survival and dead aphids were removed from the deep petri dish when they were discovered. In addition, the developmental stage (1st, 2nd, 3rd, 4th, 5th and 5R (5th that has reproduced) instar) was determined daily throughout the experiment.\nFor each treatment, 49-50 aphids were placed onto each leaf. The feeding systems were changed every 2-3 days throughout the experiment. Aphids were monitored daily for survival and dead aphids were removed from the deep petri dish when they were discovered.\nFor each treatment, 76-80 aphids were placed onto each leaf. The feeding systems were changed every 2-3 days throughout the experiment. Aphids were monitored daily for survival and dead aphids were removed from the deep petri dish when they were discovered.\nFor each treatment, 50-51 aphids were placed onto each leaf. The feeding systems were changed every 2-3 days throughout the experiment. Aphids were monitored daily for survival and dead aphids were removed from the deep petri dish when they were discovered.\nFor each treatment, 56-59 aphids were placed onto each leaf. The feeding systems were changed every 2-3 days throughout the experiment. Aphids were monitored daily for survival and dead aphids were removed from the deep petri dish when they were discovered.\nFor each treatment, 57-59 aphids were placed onto each leaf. The feeding systems were changed every 2-3 days throughout the experiment. Aphids were monitored daily for survival and dead aphids were removed from the deep petri dish when they were discovered.\nFor each treatment, 15-87 aphids were placed onto each leaf. Artificial diet feeding systems were changed every 2-3 days throughout the experiment."}, "Buchnera": {"tested_on": "Buchnera", "experiment": "qPCR of Buchnera/aphid DNA copy numbers (symbiont titer)", "assay_type": "in vivo, Buchnera aphidicola", "protocol": "After 7 days of treatment, DNA was extracted from multiple aphids from each treatment group. Briefly, the aphid body surface was sterilized by dipping the aphid into a 6% bleach solution for approximately 5 seconds. Aphids were then rinsed in sterile water and DNA was extracted from each individual aphid using a DNA extraction kit (Qiagen, DNeasy kit) according to manufacturer's instructions. DNA concentration was measured using a nanodrop nucleic acid quantification, and Buchnera and aphid DNA copy numbers were measured by qPCR.\nAfter 6 days of treatment, DNA was extracted from multiple aphids from each treatment group and qPCR for quantifying Buchnera levels was done as described in the previous Example.\nAfter 8 days of treatment, DNA was extracted from multiple aphids from each treatment group. Briefly, the aphid body surface was sterilized by dipping the aphid into a 6% bleach solution for approximately 5 seconds. Aphids were then rinsed in sterile water and DNA was extracted from each individual aphid using a DNA extraction kit (Qiagen, DNeasy kit) according to manufacturer's instructions. DNA concentration was measured using a nanodrop nucleic acid quantification, and Buchnera and aphid DNA copy numbers were measured by qPCR.\nAfter 8 days of treatment, DNA was extracted from the remaining aphids in each treatment group. Briefly, the aphid body surface was sterilized by dipping the aphid into a 6% bleach solution for approximately 5 seconds. Aphids were then rinsed in sterile water and DNA was extracted from each individual aphid using a DNA extraction kit (Qiagen, DNeasy kit) according to manufacturer's instructions. DNA concentration was measured using a nanodrop nucleic acid quantification, and Buchnera and aphid DNA copy numbers were measured by qPCR.\n(§2) Briefly, the aphid body surface was sterilized by dipping the aphid into a 6% bleach solution for approximately 5 seconds. Aphids were then rinsed in sterile water and DNA was extracted from each individual aphid using a DNA extraction kit (Qiagen, DNeasy kit) according to manufacturer's instructions. DNA concentration was measured using a nanodrop nucleic acid quantification, and Buchnera and aphid DNA copy numbers were measured by qPCR.\nas §2\nAfter 3 days of treatment, DNA was extracted from the remaining living aphids from each treatment group. Briefly, the aphid body surface was sterilized by dipping the aphid into a 6% bleach solution for approximately 5 seconds. Aphids were then rinsed in sterile water and DNA was extracted from each individual aphid using a DNA extraction kit (Qiagen, DNeasy kit) according to manufacturer's instructions. DNA concentration was measured using a nanodrop nucleic acid quantification, and Buchnera and aphid DNA copy numbers were measured by qPCR.\nAfter 5 days of treatment, DNA was extracted from the remaining aphids in each treatment group. Briefly, the aphid body surface was sterilized by dipping the aphid into a 6% bleach solution for approximately 5 seconds. Aphids were then rinsed in sterile water and DNA was extracted from each individual aphid using a DNA extraction kit (Qiagen, DNeasy kit) according to manufacturer's instructions. DNA concentration was measured using a nanodrop nucleic acid quantification, and Buchnera and aphid DNA copy numbers were measured by qPCR.\nAt 5 days post-treatment, DNA was extracted from several aphids in each treatment group. Briefly, the aphid body surface was sterilized by dipping the aphid into a 6% bleach solution for approximately 5 seconds."}, "[5]": {"tested_on": "Acyrthosiphon pisum aphids", "experiment": "Aphid developmental stage monitoring", "assay_type": "in vivo", "protocol": "In addition, the developmental stage (1st, 2nd, 3rd, 4th, 5th instar) was determined daily throughout the experiment. Once an aphid reached the 4th instar stage, they were given their own artificial feeding system in a deep petri dish so that fecundity could be monitored once they reached adulthood.\nas §1\n(Vroma vicia faba from Johnny's Selected Seeds) in a climate-controlled incubator (16 h light/8 h dark photoperiod; 60±5% RH; 25±2° C.). Prior to being used for aphid rearing, fava bean plants were grown in potting soil at 24° C. with 16 h of light and 8 h of darkness. To limit maternal effects or health differences between plants, 5-10 adults from different plants were distributed among 10 two-week-old plants, and allowed to multiply to high density for 5-7 days. […] Aphids were monitored daily for survival and dead aphids were removed from the deep petri dish when they were discovered. In addition, the developmental stage (1st, 2nd, 3rd, 4th, 5th and 5R (5th that has reproduced) instar) was determined daily throughout the experiment.\nIn addition, the developmental stage (1st, 2nd, 3rd, 4th, 5th, and 5R (5th that has reproduced) instar) was determined daily throughout the experiment.\nIn addition, the developmental stage (1st, 2nd, 3rd, 4th, 5th, and 5R (5th instar aphids that are reproducing) instar) was determined daily throughout the experiment.\nIn addition, the developmental stage (1st, 2nd, 3rd, 4th, and 5th instar) was determined daily throughout the experiment.\nIn addition, the developmental stage (1st, 2nd, 3rd, 4th, 5th, and 5R (5th that has reproduced) instar) was determined daily throughout the experiment. Once an aphid reached the 4th instar stage, they were given their own artificial feeding system in a deep petri dish so that fecundity could be monitored once they reached adulthood.\nFor each treatment, 30 aphids were placed onto each leaf in triplicate. […] Aphids were monitored daily for survival and dead aphids were removed from the deep petri dish when they were discovered. In addition, the developmental stage (1st, 2nd, 3rd, 4th, 5th, and 5R (5th instar aphids that are reproducing) instar) was determined daily throughout the experiment. […]"}, "[6]": {"tested_on": "gram-negative and gram-positive bacteria as well as fungi", "conditions": "cited from earlier work"}, "[7]": {"conditions": "synthetic cationic NCR peptides; cited from earlier work"}}, "note": "“Also recorded” adds a separate entry of the source.", "data": [{"compound": "O=C(O)c1cn(C2CC2)c2cc(N3CCNCC3)c(F)cc2c1=O", "note": "[ciprofloxacin]", "values": [{"measurement": "F1 offspring emerged", "setting": "[1]", "value": "much less offspring that emerged"}, {"measurement": "E. coli growth on plates with entire soaked corn kernels", "setting": "Escherichia coli DH5α", "value": "no bacteria grew"}, {"measurement": "Weevil survival", "setting": "[2]", "value": "all weevils remained alive for the course of the experiment"}, {"measurement": "Number of offspring found in dissected corn kernels", "setting": "[3]; 250 ug/ml ciprofloxacin", "value": 13}, {"measurement": "Offspring in the larval form", "setting": "[3]; 250 ug/ml ciprofloxacin", "value": 38, "unit": "%"}, {"measurement": "Number of offspring found in dissected corn kernels", "setting": "[3]; 2.5 mg/ml ciprofloxacin", "value": 20}, {"measurement": "Offspring in the larval form", "setting": "[3]; 2.5 mg/ml ciprofloxacin", "value": 65, "unit": "%"}]}, {"compound": "O=C/C=C/c1ccccc1", "note": "[trans-cinnemaldehyde]", "values": [{"measurement": "Aphid survival rate", "setting": "[4]; 0.05%, 0.5%, and 5% trans-cinnemaldehyde", "value": "dose-dependent decrease in survival; also recorded: significantly lower"}, {"measurement": "Symbiont titer (Buchnera DNA to aphid DNA)", "setting": "Buchnera; 0.05%, 0.5%, and 5% trans-cinnemaldehyde, 3 days post-treatment", "value": "reduced endosymbiotic Buchnera"}, {"measurement": "Fold less Buchnera/aphid DNA copies vs control", "setting": "Buchnera; 0.5 and 5% of trans-cinnemaldehyde, 3 days", "value": "~870", "unit": "fold"}, {"measurement": "Buchnera/aphid DNA copies", "setting": "Buchnera; lowest concentration of trans-cinnemaldehyde (0.5%), 3 days", "value": "high ratios of Buchnera/aphid DNA copies"}, {"measurement": "Aphid developmental stage", "setting": "[5]; LSR-1 1st and 2nd instar, 0.05%, 0.5%, 5% trans-cinnemaldehyde in water, leaf perfusion and through plants, by 3 days", "value": "delayed aphid development; also recorded: none of the aphids matured past the second instar stage"}]}, {"compound": "Cc1cc2c(C(C)C)c(O)c(O)c(C=O)c2c(O)c1-c1c(C)cc2c(C(C)C)c(O)c(O)c(C=O)c2c1O", "note": "[gossypol, gossypol acetic acid]", "values": [{"measurement": "Time by which all aphids succumbed to treatment", "setting": "[4]; 0.5% gossypol", "value": "≤ 4", "unit": "days"}, {"measurement": "Time of treatment after which aphids began dying", "setting": "[4]; 0.5% gossypol", "value": 2, "unit": "days"}, {"measurement": "Fold less Buchnera/aphid DNA copies vs control", "setting": "Buchnera; 0.25 and 0.5% of gossypol, through plants, 5 or 13 days", "value": "~4", "unit": "fold"}]}, {"compound": "NCR335: cationic nodule C-rich peptide (RQMIILRLNTTFRPLNFKMLRFWGQ)", "values": [{"measurement": "Antimicrobial activity", "setting": "[6]", "value": "effective against gram-negative and gram-positive bacteria as well as fungi"}, {"measurement": "pl", "setting": "[7]", "value": 11.22}]}, {"compound": "CC(=O)CCC(=O)O", "note": "[levulinic acid]", "values": [{"measurement": "Aphid mortality", "setting": "[4]; 0.03% levulinic acid, 11-day experiment", "value": "higher mortality compared to control treated aphids, although the difference did not reach statistical significance"}, {"measurement": "Insect survival", "setting": "[4]; 0.03 or 0.3% levulinic acid", "value": "decrease in insect survival"}, {"measurement": "Aphid survival", "setting": "[4]; 0.3% levulinic acid, 11-day experiment", "value": "survival was significantly less"}, {"measurement": "Fold less Buchnera/aphid DNA copies vs control", "setting": "Buchnera; 0.03 or 0.3% levulinic acid in water, 7 days of treatment", "value": "~6", "unit": "fold"}, {"measurement": "Buchnera/aphid ratio", "setting": "Buchnera; 0.03 or 0.3% levulinic acid, seven and eleven days post-treatment", "value": "reduced endosymbiotic Buchnera"}, {"measurement": "Aphid development", "setting": "[5]; 0.03 or 0.3% levulinic acid", "value": "delayed aphid development"}]}]}
